Test results as given in patent publication US20160153998A1, “BIOMARKERS FOR PREDICTING THE SENSITIVITY OF CELLS TO IMMUNOMODULATORY COMPOUNDS DURING TREATMENT OF NON-HODGKIN'S LYMPHOMA” (Celgene Corporation, priority 2007, published 2016).

Columns and labels:
Format in all cases: cell-based
Rec-1 cells [1] = assay: Real-time PCR gene expression in Rec-1 cells; details: 1, 10 or 100 μM, 24 or 48 hours, alone or with dexamethasone 10 nM
Experimental: (§1) After the cell treatment, total RNA was purified. Real-time PCR was performed with 100 ng of total RNA, using an Applied Biosystems 7500 instrument (Applied Biosystems, Foster City, Calif.) using TaqMan Sequence Detection chemistry which uses a fluorogenic probe (FAM) to enable the detection of a specific PCR product as it accumulates during PCR. Samples were prepared in triplicate in 50 μl reaction volumes. The 50 μl reactions consisted of 25 μl 2× TaqMan PCR master mix, 2.5 μl of 20× gene expression assay, 10 μl of RNA ([…]) and 12.5 μl water. Glyceraldehyde-3-phosphate dehydrogenase (GAPDH) was used as the endogenous control to ensure equal RNA amounts in each sample.
(§2) TaqMan® Gene Expression Assays were pre-formulated gene expression assays for rapid, reliable detection and quantification of human, mouse and rat mRNA transcripts. The PCR program used was: 50° C. for 2 minutes, 95° C. for 10 minutes, 40 cycles of 95° C. for 15 seconds, 60° C. for 1 minute. Data was analyzed using 7500 Real-Time PCR System Sequence Detection software v1.3 using the comparative CT relative quantification calculation method. The output was expressed as a fold-change of expression levels. The threshold level was selected to be automatically determined by the software and was set to be above the baseline but sufficiently low to be within the exponential growth region of an amplification curve. The cycle number at which the fluorescence signal associated with a particular amplicon accumulation crosses the threshold is referred to as the CT.
The effect of 1,3-dioxo-2-(2,6-dioxopiperidin-3-yl)-4-aminoisoindoline or 1-oxo-2-(2,6-dioxopiperidin-3-yl)-4-aminoisoindoline, either alone or in combination with Dexamethasone (10 nM) on the expression of several important genes involved in the regulation of NHL cell proliferation and survival was determined using Rec-1 cells (FIG. 1). The immunomodulatory compounds 1,3-dioxo-2-(2,6-dioxopiperidin-3-yl)-4-aminoisoindoline or 1-oxo-2-(2,6-dioxopiperidin-3-yl)-4-aminoisoindoline were added to the Rec-1 cells at a final concentration of 1, 10, or 100 μM. After 24 or 48 hours of incubation with 1,3-dioxo-2-(2,6-dioxopiperidin-3-yl)-4-aminoisoindoline or 1-oxo-2-(2,6-dioxopiperidin-3-yl)-4-aminoisoindoline, gene expression of VEGF, p21, p53, and cyclin D1 was measured using real-time PCR.

Jeko-1 cells [2] = assay: Real-time RT-PCR mRNA levels in Jeko-1 cells; details: 24 hours
Experimental: as §1, §2
Jeko-1 cells were treated with immunomodulatory compounds, with or without dexamethasone (10 nM) for 24 hours. Total RNA was then isolated from the treated cells, and the samples were subjected to real-time RT-PCR analysis to determine gene transcription at the mRNA level. […] 1,3-dioxo-2-(2,6-dioxopiperidin-3-yl)-4-aminoisoindoline (at 10 μM) enhanced mRNA levels of these genes up to about 3-fold. 1-oxo-2-(2,6-dioxopiperidin-3-yl)-4-aminoisoindoline (1 μM) enhanced activin A mRNA level up to 2.6-fold, and SPARC was enhanced at 10 μM.

DB cell line = assay: NHL cell proliferation, 3H-thymidine incorporation, DB cells; details: DB (t(14;18)) cells
Experimental: (§3) NHL cell proliferation was assessed by 3H-thymidine incorporation assay. Briefly, cells were cultured in 96 well cell culture plates in complete RPMI-1640 medium in the presence and absence of drugs. Following incubation at 37° C. for 3 days, 1 μCi 3H-thymidine was added to each well for the last 5 hours of incubation. The 3H incorporation of each well was then measured.
(§4) To better understand how the effectiveness of immunomodulatory compound administration varies among different cancer cell types, the immunomodulatory compound 1-oxo-2-(2,6-dioxopiperidin-3-yl)-4-aminoisoindoline was tested in vitro for its anti-proliferative effect in several NHL cell lines after 1-3 days of treatment. The method utilized ^3H-thymidine incorporation, microbead array technology and real time PCR. The six tested cell lines were Namalwa, Jeko-1, Rec-1, Granta-519, DB, and JVM-2.

Namalwa cells [3] = assay: Luminex assay for VEGF production, Namalwa; details: 3 days
Experimental: (§5) Cells were treated with the drug for 3 days in 96 well plates. Cell culture supernatants were then collected for measurement of VEGF using Luminex/xMAP® technology.
(§6) 1-oxo-2-(2,6-dioxopiperidin-3-yl)-4-aminoisoindoline inhibited the production of the pro-angiogenic growth factor VEGF from anti-proliferation sensitive NHL cells, such as Namalwa, Jeko-1 and Rec-1 cells.

Namalwa cells [4] = assay: Real-time RT-PCR gene expression in Namalwa cells
Experimental: as §1, §2
The effect of the administration of 1-oxo-2-(2,6-dioxopiperidin-3-yl)-4-aminoisoindoline in Namalwa cells after 48 hours of drug treatment was measured.
The effect of administration of 1-oxo-2-(2,6-dioxopiperidin-3-yl)-4-aminoisoindoline at various time points from 0 to 48 hours in the fold change in expression of several genes was measured in Namalwa cells (FIG. 11).

DB cells = assay: Luminex assay for VEGF production, DB; details: 3 days
Experimental: as §5, §6

Rec-1 cells [5] = assay: Luminex assay for VEGF production, Rec-1; details: 3 days
Experimental: as §5, §6

NHL cells = assay: Real-time RT-PCR gene expression in NHL cell lines
Experimental: as §1, §2
The effect of the administration of 1-oxo-2-(2,6-dioxopiperidin-3-yl)-4-aminoisoindoline in various NHL cells was measured after 24 hours of incubation, using real-time RT-PCR (FIG. 9).

Namalwa cells [6] = assay: Proliferation of Namalwa cells after SPARC siRNA knockdown; details: SPARC siRNA 200 nM, drug for 2 days
Experimental: as §3
Cells were transfected with SPARC or cyclophilin siGENME SMARTpool (Dharmacon, Lafayette, Colo.) at final concentration of 200 nM using DharmaFECT 2 transfection reagents following the manufacturer's protocol. After 24 hours of transfection, cells were then treated with the drug for 2 days.
SPARC siRNA was transfected to Namalwa cells to determine the effect of a SPARC knockdown on the antiproliferative effect of 1-oxo-2-(2,6-dioxopiperidin-3-yl)-4-aminoisoindoline in Namalwa cells. The anti-proliferative effect of 1-oxo-2-(2,6-dioxopiperidin-3-yl)-4-aminoisoindoline is weaker after SPARC knockdown compared to mock transfected control cells.

sensitive NHL cells = assay: Luminex assay for VEGF production, sensitive NHL cells
Experimental: as §5, §6

Rec-1 cells [7] = assay: Rec-1 cell growth in the presence of rhVEGF or anti-VEGF antibody; details: Rec-1 cells (FIG. 8)
Experimental: as §3

Granta-519 cells = assay: Luminex assay for VEGF production, Granta-519; details: 3 days
Experimental: as §5, §6

Jeko-1 cells [8] = assay: Luminex assay for VEGF production, Jeko-1; details: 3 days
Experimental: as §5, §6

[9] = system: NHL cell lines (Namalwa, Jeko-1, Rec-1, Granta-519, DB, JVM-2); assay: NHL cell proliferation, 3H-thymidine incorporation
Experimental: as §3, §4

[10] = Namalwa cells, 10 μM, 2-48 hours

Nc1cccc2c1C(=O)N(C1CCC(=O)NC1=O)C2=O (centres unmarked) [1,3-dioxo-2-(2,6-dioxopiperidin-3-yl)-4-aminoisoindoline]
VEGF mRNA level (Rec-1 cells [1]): decrease | p21 mRNA level (Rec-1 cells [1]): increase | enhancement of mRNA levels of p21, activin A and SPARC (Jeko-1 cells [2]; 10 μM): about 3 fold | SPARC mRNA level (Jeko-1 cells [2]; 1-10 μM): up-regulate | activin A mRNA level (Jeko-1 cells [2]; 1-10 μM): up-regulate | p21 mRNA level (Jeko-1 cells [2]; 1-10 μM): up-regulate | effect on p21 (Jeko-1 cells [2]): clear enhancing effect

Nc1cccc2c1CN(C1CCC(=O)NC1=O)C2=O (centres unmarked) [1-oxo-2-(2,6-dioxopiperidin-3-yl)-4-aminoisoindoline]
cell proliferation of DB cell line (DB cell line): increased rate of cell proliferation | production of VEGF (Namalwa cells [3]): inhibited | change in expression of BlyS (Namalwa cells [4]; [10]): did not exhibit a significant change | change in expression of VEGF (Namalwa cells [4]; [10]): did not exhibit a significant change | change in expression of cyclin D1 (Namalwa cells [4]; [10]): did not exhibit a significant change | change in expression of p53/p73 (Namalwa cells [4]; [10]): did not exhibit a significant change | production of VEGF (DB cells): fails to inhibit | production of VEGF (Rec-1 cells [5]): inhibited | VEGF mRNA expression (NHL cells; NHL cells): does not inhibit | p21 in sensitive and resistant (DB) cells (NHL cells; both sensitive and resistant (DB) cells): elevated p21 was observed | elevation of SPARC mRNA in resistant cells (NHL cells; resistant cells): not seen | SPARC expression (NHL cells; sensitive NHL cells, 24 hours): increased | p21cip/kip expression (NHL cells; sensitive NHL cells, 24 hours): increased | SPARC mRNA expression (NHL cells; several NHL cell lines): increased expression of SPARC mRNA | p21cip/kip expression (NHL cells; several cell lines): increased | anti-proliferative effect after SPARC knockdown compared to mock transfected control cells (Namalwa cells [6]): weaker | concentrations for the effect on VEGF compared with anti-proliferative effects (sensitive NHL cells): well below levels required for anti-proliferative effects | production of the proangiogenic growth factor VEGF (sensitive NHL cells; FIG. 7): inhibits | anti-proliferative activity on addition of exogenous recombinant human VEGF (in excess) or neutralizing VEGF antibody (Rec-1 cells [7]): does not affect | production of VEGF (Granta-519 cells): fails to inhibit | production of VEGF (Jeko-1 cells [8]): inhibited | anti-proliferative activity against NHL cells ([9]; 1-3 days of treatment): demonstrated anti-proliferative activity | order of sensitivity of NHL cell lines to the compound ([9]; 3 day incubation): Namalwa>Rec-1>Jeko-1>Granta-519>JVM-2>DB | VEGF mRNA level (Rec-1 cells [1]): decrease | p21 mRNA level (Rec-1 cells [1]): increase | enhancement of activin A mRNA level (Jeko-1 cells [2]; 1 μM): up to 2.6 fold | SPARC mRNA level (Jeko-1 cells [2]; 10 μM): enhanced

C[C@@H]1C[C@H]2[C@@H]3CCC4=CC(=O)C=C[C@]4(C)[C@@]3(F)[C@@H](O)C[C@]2(C)[C@@]1(O)C(=O)CO [dexamethasone]
SPARC expression (Namalwa cells [4]; dexamethasone alone, NHL cells such as Namalwa): no effect
